Experimental data from patent US20240279236A1, “COMPOUNDS AND METHODS OF TREATING TUBERCULOSIS” (Fimbrion Therapeutics, Inc., priority 2021, published 2024).

Each compound was assayed on WT Mtb Erdman strain (assay: Microplate Alamar Blue Assay (MABA), Mtb growth inhibition). Conditions: Mycobacterium tuberculosis, ERDMAN, 168 h, Middlebrook 7H9 media, 7 days at 37° C. in 5% CO2.
Assay type: cell-based, Mycobacterium tuberculosis

`Cc1cc2c(NCCCc3ccc(-c4ccc(N(C)C)cc4)cc3)nc(-c3ccoc3)nc2s1` [Example 325, N-(3-[4′-(dimethylamino)-[1,1′-biphenyl]-4-yl]propyl)-2-(furan-3-yl)-6-methylthieno[2,3-d]pyrimidin-4-amine] was tested. Which IC50 did it give?
The IC50 was 10 nM.

`Cc1cc2c(NCCCc3ccc(-c4ccc(OC5CC5)cc4)cc3)nc(-c3ccoc3)nc2s1` [Example 326, N-(3-(4′-cyclopropoxy-[1,1′-biphenyl]-4-yl)propyl)-2-(furan-3-yl)-6-methylthieno[2,3-d]pyrimidin-4-amine] was tested. Which IC50 did it give?
Its IC50 is 15 nM.

For `Cc1cc2c(NCCCc3ccc(-c4cccc(C#N)c4)cc3)nc(-c3ccoc3)nc2s1` [Example 327, 4′-(3-([2-(furan-3-yl)-6-methylthieno[2,3-d]pyrimidin-4-yl]amino)propyl)-[1,1′-biphenyl]-3-carbonitrile], which IC50 is on record?
The IC50 was 100 nM.

How did the IC50 turn out when `Cc1cc2c(NCCCc3ccc(-c4ccc([N+](=O)[O-])cc4)cc3)nc(-c3ccoc3)nc2s1` [Example 328, 2-(furan-3-yl)-6-methyl-N-(3-(4′-nitro-[1,1′-biphenyl]-4-yl)propyl)thieno [2,3-d]pyrimidin-4-amine] was run?
Its IC50 is less than 1 nM.

How did the IC50 turn out when `Cc1cc2c(NCCCc3ccc(-c4ccc5c(ccn5C)c4)cc3)nc(-c3ccoc3)nc2s1` [Example 329, 2-(furan-3-yl)-6-methyl-N-(3-[4-(1-methyl-1H-indol-5-yl)phenyl]propyl) thieno[2,3-d]pyrimidin-4-amine] was run?
Its IC50 is 34 nM.

`Cc1cc2c(NCCCc3ccc(-c4cccs4)cc3)nc(-c3ccoc3)nc2s1` [Example 330, 2-(furan-3-yl)-6-methyl-N-(3-[4-(thiophen-2-yl)phenyl]propyl) thieno[2,3-d]pyrimidin-4-amine] was tested. Which IC50 did it give?
The IC50 was less than 5 nM.

How did the IC50 turn out when `Cc1cc2c(NCCCc3ccc(-c4cc(F)c(Cl)c(F)c4)cc3)nc(-c3ccoc3)nc2s1` [Example 331, N-(3-(4′-chloro-3′,5′-difluoro-[1,1′-biphenyl]-4-yl)propyl)-2-(furan-3-yl)-6-methylthieno[2,3-d]pyrimidin-4-amine] was run?
The IC50 was 30 nM.

How did the IC50 turn out when `Cc1cc2c(NCCCc3ccc(-c4cnoc4)cc3)nc(-c3ccoc3)nc2s1` [Example 332, 2-(furan-3-yl)-6-methyl-N-(3-[4-(1,2-oxazol-4-yl)phenyl]propyl) thieno[2,3-d]pyrimidin-4-amine] was run?
The IC50 was 80 nM.

For `C#Cc1ccc(-c2ccc(CCCNc3nc(-c4ccoc4)nc4sc(C)cc34)cc2)cc1` [Example 333, N-(3-(4′-ethynyl-[1,1′-biphenyl]-4-yl)propyl)-2-(furan-3-yl)-6-methylthieno[2,3-d]pyrimidin-4-amine], which IC50 is on record?
The IC50 was 12 nM.

Which IC50 does the source give for `Cc1cc2c(NCCCc3ccc(-c4ccsc4)cc3)nc(-c3ccoc3)nc2s1` [Example 334, 2-(furan-3-yl)-6-methyl-N-(3-[4-(thiophen-3-yl)phenyl]propyl) thieno[2,3-d]pyrimidin-4-amine] here?
Its IC50 is 8 nM.

For `Cc1ccc(-c2ccc(CCCNc3nc(-c4ccoc4)nc4sc(C)cc34)cc2)o1` [Example 335, 2-(furan-3-yl)-6-methyl-N-(3-[4-(5-methylfuran-2-yl)phenyl]propyl) thieno[2,3-d]pyrimidin-4-amine], which IC50 is on record?
Its IC50 is 87 nM.

How did the IC50 turn out when `Cc1ccc(-c2ccc(CCCNc3nc(-c4ccoc4)nc4sc(C)cc34)cc2)s1` [Example 336, 2-(furan-3-yl)-6-methyl-N-(3-[4-(5-methylthiophen-2-yl)phenyl]propyl)thieno[2,3-d]pyrimidin-4-amine] was run?
Its IC50 is 15 nM.

For `Cc1cc2c(NCCCc3ccc(-c4ccco4)cc3)nc(-c3ccoc3)nc2s1` [Example 337, N-(3-[4-(furan-2-yl)phenyl]propyl)-2-(furan-3-yl)-6-methylthieno[2,3-d]pyrimidin-4-amine], which IC50 is on record?
The IC50 was 31 nM.

For `Cc1cc2c(NCCCc3ccc(-c4ccoc4)cc3)nc(-c3ccoc3)nc2s1` [Example 338, 2-(furan-3-yl)-N-(3-[4-(furan-3-yl)phenyl]propyl)-6-methylthieno[2,3-d]pyrimidin-4-amine], which IC50 is on record?
The IC50 was 15 nM.

`Cc1cc2c(NCCCc3ccc(-c4ccc(C(F)(F)F)cc4)cc3)nc(-c3ccoc3)nc2s1` [Example 339, 2-(furan-3-yl)-6-methyl-N-(3-[4′-(trifluoromethyl)-[1,1′-biphenyl]-4-yl]propyl)thieno [2,3-d]pyrimidin-4-amine] was tested. Which IC50 did it give?
Its IC50 is less than 15 nM.

`Cc1cc2c(NCCCc3ccc(-c4cccc([N+](=O)[O-])c4)cc3)nc(-c3ccoc3)nc2s1` [Example 340, 2-(furan-3-yl)-6-methyl-N-(3-(3′-nitro-[1,1′-biphenyl]-4-yl)propyl)thieno [2,3-d]pyrimidin-4-amine] was tested. Which IC50 did it give?
Its IC50 is 25 nM.

For `Cc1cc2c(NCCCc3ccc(-c4ccc(C(C)(C)O)cc4)cc3)nc(-c3ccoc3)nc2s1` [Example 341, 2-[4′-(3-([2-(furan-3-yl)-6-methylthieno[2,3-d]pyrimidin-4-yl]amino)propy1)-[1,1′-biphenyl]-4-yl]propan-2-ol], which IC50 is on record?
The IC50 was 140 nM.

Which IC50 does the source give for `Cc1cc2c(NCCCc3ccc(-c4ccc5nonc5c4)cc3)nc(-c3ccoc3)nc2s1` [Example 343, N-(3-[4-(2,1,3-benzoxadiazol-5-yl)phenyl]propyl)-2-(furan-3-yl)-6-methylthieno[2,3-d]pyrimidin-4-amine] here?
Its IC50 is less than 15 nM.

For `Cc1cc2c(NCCCc3ccc(-c4cnc(F)c(C)c4)cc3)nc(-c3ccoc3)nc2s1` [Example 344, N-(3-[4-(6-fluoro-5-methylpyridin-3-yl)phenyl]propyl)-2-(furan-3-yl)-6-methylthieno[2,3-d]pyrimidin-4-amine], which IC50 is on record?
Its IC50 is 74 nM.

How did the IC50 turn out when `CCc1nc(NCCCc2ccc(-c3ccccn3)cc2)c2cc(C)sc2n1` [Example 368, 2-ethyl-6-methyl-N-(3-(4-(pyridin-2-yl)phenyl)propyl) thieno[2,3-d] pyrimidin-4-amine] was run?
The IC50 was 210 nM.

With `CCc1nc(NCCCc2ccc(-c3cnc(C(F)(F)F)cn3)cc2)c2cc(C)sc2n1` [Example 369, 2-ethyl-6-methyl-N-(3-(4-(5-(trifluoromethyl)pyrazin-2-yl)phenyl)propyl)thieno[2,3-d]pyrimidin-4-amine] as the compound, how does the IC50 read?
Its IC50 is 21 nM.

Which IC50 does the source give for `CCc1nc(NCCCc2ccc(-c3ccc(C(F)(F)F)cn3)cc2)c2cc(C)sc2n1` [Example 370, 2-ethyl-6-methyl-N-(3-(4-(5-(trifluoromethyl)pyridin-2-yl)phenyl)propyl)thieno[2,3-d]pyrimidin-4-amine] here?
Its IC50 is 25 nM.

Which IC50 does the source give for `CCc1nc(NCCCc2ccc(-c3cnccn3)cc2)c2cc(C)sc2n1` [Example 371, 2-ethyl-6-methyl-N-(3-(4-(pyrazin-2-yl)phenyl)propyl) thieno[2,3-d]pyrimidin-4-amine] here?
The IC50 was 150 nM.

How did the IC50 turn out when `CCc1nc(NCCCc2ccc(-c3ncccn3)cc2)c2cc(C)sc2n1` [Example 372, 2-ethyl-6-methyl-N-(3-(4-(pyrimidin-2-yl)phenyl)propyl) thieno[2,3-d]pyrimidin-4-amine] was run?
Its IC50 is 250 nM.

`CCc1nc(NCCCc2ccc(-c3cccnn3)cc2)c2cc(C)sc2n1` [Example 373, 2-ethyl-6-methyl-N-(3-(4-(pyridazin-3-yl)phenyl)propyl) thieno[2,3-d] pyrimidin-4-amine] was tested. Which IC50 did it give?
Its IC50 is 1000 nM.

With `CCc1nc(NCCCc2ccc(-c3ccc(OC(F)(F)F)cc3F)cc2)c2cc(C)sc2n1` [Example 374, 2-ethyl-N-(3-(2′-fluoro-4′-(tri-fluoromethoxy)-[1,1′-biphenyl]-4-yl)propyl)-6-methylthieno[2,3-d]pyrimidin-4-amine] as the compound, how does the IC50 read?
Its IC50 is 30 nM.

With `CCc1nc(NCCCc2ccc(-c3ccnnc3)cc2)c2cc(C)sc2n1` [Example 375, 2-ethyl-6-methyl-N-(3-(4-(pyridazin-4-yl)phenyl)propyl) thieno[2,3-d]pyrimidin-4-amine] as the compound, how does the IC50 read?
Its IC50 is 860 nM.
